Results from patent US20240090503A1, “FUNGICIDAL OXADIAZOLES AND THEIR MIXTURES” (FMC CORPORATION, priority 2020, published 2024).
Read-outs that look alike come from different tables or passages of the source.

Columns and labels:
[1] = test system: Zymoseptoria tritici (the causal agent of wheat leaf blotch); assay: Test B: preventive spray on wheat seedlings, wheat leaf blotch, visual disease rating; type: in vivo; details: Zymoseptoria tritici, 456 h, wheat seedlings; for pest or weed control at 250 ppm: 250 ppm test suspension, 100 = 100% disease control
How it was run: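 This is a preventive test: spray application preceded Zymoseptoria tritici spore inoculation by one day. Test suspensions were in acetone/water with 250 ppm PEG400 surfactant, at the listed ppm rate. After 48 h saturated humidity at 24° C and 17 days at 20° C, visual ratings scored control from 0 to 100%.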

[2] = test system: Puccinia recondita f. sp. tritici (the causal agent of wheat leaf rust); assay: Test C: preventive spray on wheat seedlings, wheat leaf rust, visual disease rating; type: in vivo; details: Puccinia recondita, 168 h, wheat seedlings; for pest or weed control at 10 ppm: 10 ppm test suspension
How it was run: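 Wheat seedlings sprayed to run-off with compound in acetone/water (50/50) with 250 ppm PEG400, then inoculated with spores the following day. After 24 h saturated humidity at 20° C. and 6 days in growth chamber at 20° C., disease rated visually as % control relative to untreated controls.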

[3] = test system: Phakopsora pachyrhizi (the causal agent of Asian soybean rust); assay: Test A: preventive spray on soybean seedlings, Asian soybean rust, visual disease rating; type: in vivo; details: Phakopsora pachyrhizi, 216 h, soybean seedlings, 100 = 100% disease control, 0 = no control; for pest or weed control at 10 ppm: 10 ppm test suspension
How it was run: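 Preventive test: soybean seedlings received a run-off spray of compound suspended at the set ppm in 50/50 acetone/water plus 250 ppm PEG400, and one day later a P. pachyrhizi spore inoculum. Visual scoring (0 none to 100 full disease control) followed 24 h saturated incubation and 8 days' growth chamber, both at 22° C.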

[4] = test system: Phakopsora pachyrhizi (the causal agent of Asian soybean rust); assay: Test E: compounds alone and mixtures sprayed on soybean seedlings, Asian soybean rust, observed and Colby-expected disease control; type: in vivo
Text: The general protocol for preparing test compositions for TEST E was as follows: Compound 316, Compound 376, Compound 225, Compound 229, Compound 257, Compound 394, Compound 506, Compound 507, Compound 508, Compound 509, Compound 511, Compound 512, methyl N-[[5-[1-[2,6-difluoro-4-(1-methylethyl)phenyl]-1H-pyrazol-3-yl]-2-methylphenyl]methyl]carbamate (b54.11a), methyl N-[[5-[l-(4-cyclopropyl-2,6-difluorophenyl)-1H-pyrazol-3-yl]-2-methylphenyl]methyl]carbamate (b54.11d), ethyl 1-[[4-[[(1Z)-2-ethoxy-3,3,3-trifluoro-1-propen-1-yl]oxy]phenyl]methyl]-1H-pyrazole-4-carboxylate (b54.12a), ethyl 1-[[4-[[2-(trifluoromethyl)-1,3-dioxolan-2-yl]methoxy]phenyl]methyl]-1H-pyrazole-4-carboxylate (b54.13a), azoxystrobin, benzovindiflupyr, bixafen, chlorothalonil, cyproconazole, epoxiconazole, fenpropidin, fenpropimorph, fluindapyr, flutriafol, fluxapyroxad, inpyrfluxam, metominostrobin, picoxystrobin, prothioconazole, pydiflumetofen, pyraclostrobin, tebuconazole and trifloxystrobin were obtained as unformulated, technical-grade materials. Copper hydroxide and mancozeb was obtained as a formulated product marketed under the trademarks KOCIDE 3000 and MANZATE, respectively. Unformulated materials were first dissolved in acetone and then suspended at the desired concentration (in ppm) in acetone and purified water (50/50 mixture by volume) containing 250 ppm of the surfactant Trem® 014 (polyhydric alcohol esters). Formulated materials were dispersed in sufficient water to give the desired concentration, and neither organic solvent nor surfactant was added to the suspension. The resulting test mixtures were then used in TEST E. The tests were run on four individual plants and the results reported as the mean average of the four plants.
The presence of a synergistic effect between two active ingredients can be established with the aid of the Colby equation (see Colby, S. R. “Calculating Synergistic and Antagonistic Responses of Herbicide Combinations”, Weeds, (1967), 15, 20-22):
Using the method of Colby, the presence of a synergistic interaction between two active ingredients is established by first calculating the predicted activity, p, of the mixture based on activities of the two components applied alone. If p is lower than the experimentally established effect, synergism has occurred. In the equation above, A is the fungicidal activity in percentage control of one component applied alone at rate x. The B term is the fungicidal activity in percentage control of the second component applied at rate y. The equation estimates p, the expected fungicidal activity of the mixture of A at rate x with B at rate y if their effects are strictly additive and no interaction has occurred.
The test mixture was sprayed to the point of run-off on soybean seedlings. The following day the seedlings were inoculated with a spore suspension of Phakopsora pachyrhizi (the causal agent of Asian soybean rust) and incubated in a saturated atmosphere at 22° C. for 24 h and then moved to a growth chamber at 22° C. for 8 days, after which time visual disease ratings were made.
Results for Test E are given below in Tables A-1 through K-2. Each table corresponds to a set of evaluations performed together at the same time. In each table, a rating of 100 indicates 100% disease control and a rating of 0 indicates no disease control (relative to the controls). Columns labeled “Obsd” indicate the average of results observed from test run on four individual plants. Columns labeled “Exp” indicate the expected value for each treatment mixture using the Colby equation, as described above.

[5] = 100 = 100% disease control, 0 = no control
[6] = Phakopsora pachyrhizi, Compound 509 alone, read-out: Test E Obsd
[7] = Phakopsora pachyrhizi, applied alone, read-out: Test E Obsd
[8] = Phakopsora pachyrhizi, Compound 511 alone, read-out: Test E Obsd
[9] = Phakopsora pachyrhizi, Compound 512 alone, read-out: Test E Obsd

Compound: O=C(NCC(F)(F)F)c1coc(Cc2ccc(-c3noc(C(F)(F)F)n3)cc2)n1 [Compound 316, N-(2,2,2-trifluoroethyl)-2-[[4-[5-(trifluoromethyl)-1,2,4-oxadiazol-3-yl]phenyl]methyl]-4-oxazolecarboxamide]
- melting point: 164 to 168 °C
- pest or weed control at 250 µg/mL ([1]; test suspension 250 ppm): 5%
- pest or weed control at 10 µg/mL ([2]; test suspension 10 ppm, read-out: Test C disease control rating): 100%
- pest or weed control at 10 µg/mL ([3]; test suspension 10 ppm, read-out: Test A disease control rating): 100%
- pest or weed control at 0.471 ppm ([4]; Phakopsora pachyrhizi, Compound 316 alone, 0.471 ppm, read-out: Test E Obsd): 24%
- pest or weed control at 0.764 ppm ([4]; Phakopsora pachyrhizi, Compound 316 alone, 0.764 ppm, read-out: Test E Obsd): 82%
- pest or weed control at 0.471 ppm ([4]; Phakopsora pachyrhizi, Table A-1, Compound 316 0.471 ppm alone, read-out: Test E Obsd (disease control rating)): 59%
- pest or weed control at 0.764 ppm ([4]; Phakopsora pachyrhizi, Table A-1, Compound 316 0.764 ppm alone, read-out: Test E Obsd (disease control rating)): 75%
- pest or weed control at 0.471 ppm ([4]; Phakopsora pachyrhizi, Table B-1, Compound 316 0.471 ppm alone, read-out: Test E Obsd (disease control rating)): 22%
- pest or weed control at 0.764 ppm ([4]; Phakopsora pachyrhizi, Table B-1, Compound 316 0.764 ppm alone, read-out: Test E Obsd (disease control rating)): 54%
- pest or weed control at 0.471 ppm ([4]; Phakopsora pachyrhizi, Table C-1, Compound 316 0.471 ppm alone, read-out: Test E Obsd (disease control rating)): 49%
- pest or weed control at 0.764 ppm ([4]; Phakopsora pachyrhizi, Table C-1, Compound 316 0.764 ppm alone, read-out: Test E Obsd (disease control rating)): 66%
- pest or weed control at 0.471 ppm ([4]; Phakopsora pachyrhizi, Table D-1, Compound 316 0.471 ppm alone, read-out: Test E Obsd (disease control rating)): 20%
- pest or weed control at 0.764 ppm ([4]; Phakopsora pachyrhizi, Table D-1, Compound 316 0.764 ppm alone, read-out: Test E Obsd (disease control rating)): 70%
- pest or weed control at 0.471 ppm ([4]; Phakopsora pachyrhizi, Table F-1, Compound 316 0.471 ppm alone, read-out: Test E Obsd (disease control rating)): 61%
- pest or weed control at 0.764 ppm ([4]; Phakopsora pachyrhizi, Table F-1, Compound 316 0.764 ppm alone, read-out: Test E Obsd (disease control rating)): 68%
- pest or weed control at 0.471 ppm ([4]; Phakopsora pachyrhizi, Table G-1, Compound 316 0.471 ppm alone, read-out: Test E Obsd (disease control rating)): 31%
- pest or weed control at 0.764 ppm ([4]; Phakopsora pachyrhizi, Table G-1, Compound 316 0.764 ppm alone, read-out: Test E Obsd (disease control rating)): 64%
- pest or weed control at 0.471 ppm ([4]; Phakopsora pachyrhizi, Table H-1, Compound 316 0.471 ppm alone, read-out: Test E Obsd (disease control rating)): 44%
- pest or weed control at 0.764 ppm ([4]; Phakopsora pachyrhizi, Table H-1, Compound 316 0.764 ppm alone, read-out: Test E Obsd (disease control rating)): 80%
- pest or weed control at 0.471 ppm ([4]; Table E-1, Compound 316 0.471 ppm alone, read-out: Test E Obsd (disease control rating)): 61%
- pest or weed control at 0.764 ppm ([4]; Table E-1, Compound 316 0.764 ppm alone, read-out: Test E Obsd (disease control rating)): 58%

Compound: COCCNC(=O)c1csc(Cc2ccc(-c3noc(C(F)(F)F)n3)cc2)n1 [Compound 394, N-(2-methoxyethyl)-2-[[4-[5-(trifluoromethyl)-1,2,4-oxadiazol-3-yl]phenyl]methyl]-4-thiazolecarboxamide]
- melting point: 83 to 87 °C
- pest or weed control at 250 ppm [1]: 99%
- pest or weed control at 10 ppm [2, 5]: 100%
- pest or weed control at 10 ppm [3]: 100%
- pest or weed control at 0.241 ppm ([4]; Phakopsora pachyrhizi, applied alone, 0.241 ppm, read-out: Test E Obsd): 4%

Compound: Cn1nc(C(=O)NCC(F)(F)F)cc1Cc1ccc(-c2noc(C(F)(F)F)n2)cc1 [Compound 509, 1-methyl-N-(2,2,2-trifluoroethyl)-5-[[4-[5-(trifluoromethyl)-1,2,4-oxadiazol-3-yl]phenyl]methyl]-1H-pyrazole-3-carboxamide]
- melting point: 142 to 142.9 °C
- pest or weed control at 50 ppm ([2]; 50 ppm test suspension, 100 = 100% disease control, 0 = no control): 99%
- pest or weed control at 50 ppm ([3]; 50 ppm test suspension): 100%
- pest or weed control at 2.796 ppm [4, 6]: 36%
- pest or weed control at 5.625 ppm [4, 6]: 47%
- pest or weed control at 2.796 ppm [4, 7]: 54%
- pest or weed control at 5.625 ppm [4, 7]: 35%

Compound: COCCNC(=O)c1noc(Cc2ccc(-c3noc(C(F)(F)F)n3)cc2)n1 [Compound 511, N-(2-methoxyethyl)-5-[[4-[5-(trifluoromethyl)-1,2,4-oxadiazol-3-yl]phenyl]methyl]-1,2,4-oxadiazole-3-carboxamide]
- melting point: 80 to 85 °C
- pest or weed control at 250 ppm [1]: 90%
- pest or weed control at 250 ppm ([2]; 250 ppm test suspension, 100 = 100% disease control, 0 = no control): 100%
- pest or weed control at 250 ppm ([3]; 250 ppm test suspension): 100%
- pest or weed control at 2.436 ppm [4, 8]: 21%
- pest or weed control at 4.926 ppm [4, 8]: 68%
- pest or weed control at 2.436 ppm [4, 7]: 40%
- pest or weed control at 4.926 ppm [4, 7]: 66%

Compound: Cn1nc(Cc2ccc(-c3noc(C(F)(F)F)n3)cc2)cc1C(=O)NCC(F)(F)F [Compound 512, 1-methyl-N-(2,2,2-trifluoroethyl)-3-[[4-[5-(trifluoromethyl)-1,2,4-oxadiazol-3-yl]phenyl]methyl]-1H-pyrazole-5-carboxamide]
- melting point: 156 to 160 °C
- pest or weed control at 250 ppm [1]: 98%
- pest or weed control at 10 ppm [2, 5]: 100%
- pest or weed control at 10 ppm [3]: 100%
- pest or weed control at 1.893 ppm [4, 9]: 9%
- pest or weed control at 3.829 ppm [4, 9]: 58%
- pest or weed control at 1.893 ppm [4, 7]: 14%
- pest or weed control at 3.829 ppm [4, 7]: 66%
